Measurements as given in patent US7718688B2, “Nitrobenzindoles and their use in cancer therapy” (Auckland Uniservices Limited, priority 2004, dated 2010).

Tests used:
[1] = system: HT29: human colon cancer cell line; assay: Proliferation IC50 assay, oxic/hypoxic, HT29; format: cell-based; conditions: for IC50 / HCR (hypoxic cytotoxicity ratio) HT29: Table 3; for IC50: 4 h exposure under aerobic conditions; for HCR (hypoxic cytotoxicity ratio) HT29: IC50(aerobic)/IC10(hypoxic)
HT29 clonogens = assay: Clonogenic assay (C10), oxic/hypoxic, HT29; format: cell-based, human; conditions: for Clonogenic HCR HT29: C10(aerobic)/C10(hypoxic); for Clonogenic C10 HT29 Oxic: concentration to reduce HT29 clonogens to 10% of controls, 4 hr exposure under aerobic conditions
[2] = One-electron reduction potential E(1) by pulse radiolysis; format: physicochemical; conditions: determined by pulse radiolysis
[3] = system: SKOV3: human ovarian carcinoma cell line; assay: Proliferation IC50 assay, oxic/hypoxic, SKOV3; format: cell-based; conditions: Table 3; for IC50: 4 h exposure under aerobic conditions; for HCR (hypoxic cytotoxicity ratio) SKOV3: IC50(aerobic)/IC10(hypoxic)
[4] = Hypoxic metabolism with HT29 tumour S9 (HPLC); conditions: for k: rate of formation of compound of Formula II: 10 μM with tumour S9 (12 mg/mL protein), 37° C., pH 7.4, NADPH 1 mM, 2 h, products R3, 56, 55, 60
Text: Metabolism of compounds of Formula I was investigated using S9 preparations from HT29 tumours grown as xenografts in CD-1 mice.

[5] = Plasma pharmacokinetics after intravenous 36 in mice (LC/MS/MS); format: in vivo, CD-1 mice (nu/+ heterozygotes); conditions: CD-1 (nu/+ heterozygotes), mouse
Experimental: The compounds were assayed in plasma, following precipitation of proteins with methanol, using an LC/MS/MS (triple quadrupole mass spectrometer).

SMILES | IC50 ([1]; Homo sapiens, HT-29) [µM] | HCR (hypoxic cytotoxicity ratio) HT29 [1] | Clonogenic HCR HT29 (HT29 clonogens) | Clonogenic C10 HT29 Oxic (HT29 clonogens) [µM] | E(1): one-electron reduction potential [2] [mV] | IC50 ([3]; Homo sapiens, SK-OV-3) [µM] | HCR (hypoxic cytotoxicity ratio) SKOV3 [3] | k: rate of formation of compound of Formula II ([4]; hypoxic) [µM/h] | melting point | AUC for 90% kill of HT29 cells under hypoxic conditions (HT29 clonogens; estimated from the clonogenic assay data in Table 3) [µM·min] | AUC ([5]; intravenous, 42.1 μmol/kg, 35 derived from 36, plasma, mice) [µM·h] | AUC ([5]; iv, 42.1 umol/kg, plasma, CD-1 mice, 36 i.v. 42.1 μmol/kg, 35 as metabolite of 36, mean) [µM·h] | clearance ([5]; iv, 42.1 umol/kg, plasma, CD-1 mice, 36 i.v. 42.1 μmol/kg, 35 as metabolite of 36, mean, read-out: Cl (clearance)) [mL/min/kg] | half-life ([5]; iv, 42.1 umol/kg, plasma, CD-1 mice, 36 i.v. 42.1 μmol/kg, 35 as metabolite of 36, mean, read-out: T1/2 (terminal half-life)) [min] | Vd ([5]; iv, 42.1 umol/kg, plasma, CD-1 mice, 36 i.v. 42.1 μmol/kg, 35 as metabolite of 36, mean, read-out: Vd (volume of distribution based on the terminal phase)) [L/kg] | HCR: Hypoxic cytotoxicity ratio for HT29 cell line ([1]; Table 5, as defined in Table 3) | formation of 60 under hypoxic conditions ([4]; 26 at 10 μM with S9, 2 h, hypoxic, HPLC) | formation of 60 under oxic conditions ([4]; 26 at 10 μM with S9, 2 h, oxic, HPLC) | IC50 [1] [µM] | IC50 [3] [µM]
CN(C)CCOc1ccc2[nH]c(C(=O)N3CC(CCl)c4c3cc([N+](=O)[O-])c3ccc(C(N)=O)cc43)cc2c1 (stereo not shown) [Compound 43, 1-(Chloromethyl)-3-{5-[2-(dimethylamino)ethoxy]indol-2-carbonyl}-5-nitro-1,2-dihydro-3H-benzo[e]indole-8-carboxamide] | 2.8 | 22 | 21.2 | 33 | −447 ± 9 | 3.4 | 34 |  |  |  |  |  |  |  |  |  |  |  |  | 
CN(C)CCOc1ccc2[nH]c(C(=O)N3CC(CCl)c4c3cc([N+](=O)[O-])c3ccccc43)cc2c1 (stereo not shown) [Compound R2, reference compound] | 0.47 |  | 2 | 4.8 | −512 ± 8 | 1.4 |  | 0.49 |  |  |  |  |  |  |  |  |  |  |  | 
CN(C)CCOc1ccc2[nH]c(C(=O)N3CC(CCl)c4c3cc([N+](=O)[O-])c3ccc(S(N)(=O)=O)cc43)cc2c1 (stereo not shown) [Compound 49, 1-(Chloromethyl)-3-{5-[2-(dimethylamino)ethoxy]indol-2-carbonyl}-5-nitro-1,2-dihydro-3H-benzo[e]indole-8-sulfonamide] | 9 | 26 |  |  | −456 ± 8 | 4.9 | 21 |  | 260 to 265 °C (dec.) |  |  |  |  |  |  |  |  |  |  | 
COc1cc2cc(C(=O)N3CC(CCl)c4c3cc([N+](=O)[O-])c3cc(C(C)=O)ccc43)[nH]c2c(OC)c1OC (stereo not shown) [Compound 11, 7-Acetyl-1-(chloromethyl)-5-nitro-3-(5,6,7-trimethoxyindol-2-carbonyl)-1,2-dihydro-3H-benzo[e]indole] | 4.1 | 5.2 | >13.5 | >25 |  | 5.1 | 19 |  | 257 to 260 °C |  |  |  |  |  |  |  |  |  |  | 
CN(C)CCOc1ccc2[nH]c(C(=O)N3CC(CCl)c4c3cc([N+](=O)[O-])c3cc(C(N)=O)ccc43)cc2c1 (stereo not shown) [Compound 16, 1-(Chloromethyl)-3-{5-[2-(dimethylamino)ethoxy]indol-2-carbonyl}-5-nitro-1,2-dihydro-3H-benzo[e]indole-7-carboxamide] | 4.1 |  | >14 | >25 | −422 ± 10 | 3.9 |  | 1.48 |  |  |  |  |  |  |  |  |  |  |  | 
CN(C)CCOc1ccc2[nH]c(C(=O)N3CCc4c3cc([N+](=O)[O-])c3c(S(N)(=O)=O)c(CCl)ccc43)cc2c1 [Compound 7, 7-(Chloromethyl)-3-{5-[2-(dimethylamino)ethoxy]indol-2-carbonyl}-5-nitro-1,2-dihydro-3H-benzo[e]indole-6-sulfonamide] | 2.7 | 2.3 |  |  | −497 ± 8 | 3.7 | 4.6 |  | > 320 °C |  |  |  |  |  |  |  |  |  |  | 
CN(C)CCOc1ccc2[nH]c(C(=O)N3CC(CCl)c4c3cc([N+](=O)[O-])c3cc(C#N)ccc43)cc2c1 (stereo not shown) [Compound 22, 1-(Chloromethyl)-3-{5-[2-(dimethylamino)ethoxy]indol-2-carbonyl}-5-nitro-1,2-dihydro-3H-benzo[e]indole-7-carbonitrile] | 0.7 |  |  |  | −385 ± 8 | 0.81 |  | 1.27 |  |  |  |  |  |  |  |  |  |  |  | 
CN(C)CCOc1ccc2[nH]c(C(=O)N3CC(CCl)c4c3cc([N+](=O)[O-])c3c(C(N)=O)cccc43)cc2c1 (stereo not shown) [Compound 5, 1-(Chloromethyl)-3-{5-[2-(dimethylamino)ethoxy]indol-2-carbonyl}-5-nitro-1,2-dihydro-3H-benzo[e]indole-6-carboxamide] | 23 | 43 |  |  | −481 ± 8 | 50 | 18 |  | > 350 °C |  |  |  |  |  |  |  |  |  |  | 
CN(C)CCOc1ccc2[nH]c(C(=O)N3CC(CCl)c4c3cc([N+](=O)[O-])c3cc(S(=O)(=O)NCCO)ccc43)cc2c1 (stereo not shown) [Compound 35, 1-(Chloromethyl)-3-{5-[2-(dimethylamino)ethoxy]indol-2-carbonyl}-N-(2-hydroxyethyl)-5-nitro-1,2-dihydro-3H-benzo[e]indole-7-sulfonamide] | 5.5 | 90 | 74.4 | 115 | −392 ± 7 | 9.2 | 250 |  | 205 to 210 °C | 371 | ~11.7 | 11.7 | 61 | 43 | 3.8 |  |  |  |  | 
CN(C)CCOc1ccc2[nH]c(C(=O)N3CC(CCl)c4c3cc([N+](=O)[O-])c3cc(S(N)(=O)=O)ccc43)cc2c1 (stereo not shown) [Compound 26, 1-(Chloromethyl)-3-{5-[2-(dimethylamino)ethoxy]indol-2-carbonyl}-5-nitro-1,2-dihydro-3H-benzo[e]indole-7-sulfonamide] | 4.6 | 330 | >30.9 | >42 | −390 ± 9 | 6.9 | 280 |  |  |  |  |  |  |  |  | 330 | major product of hypoxic metabolism | not detected |  | 
CN(C)CCOc1ccc2[nH]c(C(=O)N3CC(CCl)c4c3cc([N+](=O)[O-])c3c(C#N)cccc43)cc2c1 (stereo not shown) [Compound 6, 1-(Chloromethyl)-3-{5-[2-(dimethylamino)ethoxy]indol-2-carbonyl}-5-nitro-1,2-dihydro-3H-benzo[e]indole-6-carbonitrile] | 0.12 | 1.1 |  |  | −491 ± 8 | 0.17 | 1.7 |  | > 300 °C |  |  |  |  |  |  |  |  |  |  | 
COc1cc2cc(C(=O)N3CC(CCl)c4c3cc([N+](=O)[O-])c3cc([N+](=O)[O-])ccc43)[nH]c2c(OC)c1OC (stereo not shown) [Compound 8] |  | 12 | >16.2 | >25 |  |  | 78 |  |  |  |  |  |  |  |  |  |  |  | 14 | 16
CN(C)CCNS(=O)(=O)c1ccc2c3c(cc([N+](=O)[O-])c2c1)N(C(=O)c1cc2cc(OCCN(C)C)ccc2[nH]1)CC3CCl (stereo not shown) [Compound 39, 1-(Chloromethyl)-3-{5-[2-(dimethylamino)ethoxy]indol-2-carbonyl}-N-[2-(dimethylamino)ethyl]-5-nitro-1,2-dihydro-3H-benzo[e]indole-7-sulfonamide] | 0.73 | 110 | 55 | 6.2 | −357 ± 8 | 0.83 | 130 |  |  |  |  |  |  |  |  |  |  |  |  | 
